Consider eleven molecules from patent US20110071199A1, “Thiophenyl Sulfonamides for the Treatment of Alzheimer's Disease” (Bristol-Myers Squibb Company, priority 2009, published 2011).

Experiment [1] concerns Aβ formation in H4 APP751 SWE clone 8.20 cells (H4 neuroglioma cell line stably expressing the Swedish mutant of APP751). Nature of the experiment: Inhibition of Aβ formation in cultured cells. Type of experiment: cell-based. The conditions noted are these: for IC50: H4 APP751 SWE clone 8.20 cells, 19 hours incubation, Aβ40 or Aβ42 not specified. The procedure: Compounds were assayed for Aβ40 or Aβ42 inhibition in cells using H4 APP751 SWE clone 8.20, developed at Bristol-Myers Squibb, an H4 neuroglioma cell line stably expressing the Swedish mutant of APP751. Cells were maintained in log phase through twice weekly passage at a 1:20 dilution. For IC50 determinations, 30 μL cells (1.5×10^4 cells/well) in DMEM media containing 0.0125% BSA (Sigma A8412) were plated directly into 384-well compound plates (Costar 3709) containing 0.1 μL serially diluted compound in DMSO. Following incubation for 19 hours in 5% CO2 at 37° C., plates were briefly centrifuged (1000 rpm, 5 min). A 10 μL aliquot from each well was transferred to a second assay plate (Costar 3709) for Aβ40 measurements. Antibody cocktails were freshly prepared by dilution into 40 mM Tris-HCl (pH 7.4) with 0.2% BSA and added to assay plates. For Aβ42 measurements, antibodies specific for the Aβ42 neoepitope (565, developed at Bristol-Myers Squibb; conjugated to the Wallac reagent (Perkin Elmer)) and the N-terminal sequence of Aβ peptide (26D6, developed at SIBIA/Bristol-Myers Squibb; conjugated to APC (Perkin Elmer)) were mixed and 20 […] of the mixture was added to each well of the incubated cell plate yielding a final concentration of 0.8 ng/well 565 and 75 ng/well 26D6. For the Aβ40 measurements, antibodies specific for the Aβ40 neoepitope (TSD, developed at Bristol-Myers Squibb; conjugated to the Wallac reagent (Perkin Elmer)) and 26D6 as described above were mixed and 20 μL of the mixture was added to the 10 μL aliquots which had been removed previously from the cell plate yielding a final concentration of 1.6 ng/well TSD and 17.5 ng/well 26D6. Assay plates containing antibodies were sealed with aluminum foil and incubated overnight at 4° C. Signal was determined using a Viewlux counter (Perkin Elmer) and IC50 values determined using curve fitting in CurveMaster (Excel Fit based).

For the next experiment, the system named is plasma Aβ40. Put plainly: Acute rat study, plasma Abeta40 assay (4G8-TSD ELISA). The conditions noted are these: female Sprague-Dawley rats, single dose 10 mg/kg, oral gavage. Type of experiment: in vivo. The method, then:
(§1) Aβ species from animals were measured using sandwich ELISA assays. A brief discussion of these assays is included here since the details of the epitopes for the individual antibodies determines the Aβ species that are detected. Mouse and rat Aβ share a common Aβ sequence that differs from human Aβ. As a result of these sequence differences, antibodies that recognize the N-terminal region of human Aβ, such as 26D6, bind weakly to rodent Aβ. Likewise, antibodies that bind tightly to rodent Aβ, such as 252, bind weakly to human Aβ. Two assays were developed for measuring rodent Aβ40: 252-TSD and 4G8-TSD. The TSD-4G8 assay can measure not only Aβ40, but other BACE-γ-secretase cleavage products (Aβ11-40) and α-secretase-γ-secretase cleavage products (P3).
(§2) Dosing solutions were made once at the start of the study. Heating at 56° C. and sonication were used to solubilize compound in the dosing solution. All procedures were done in concordance with ACUC guidelines. Terminal blood samples were obtained by cardiac puncture after CO2 euthanasia and collected in EDTA tubes. Plasma was obtained after centrifugation. […]
Plates were coated with TSD antibody and washed as for the brain Aβ40 assay. […] Samples were detected using 4G8-biotin (Signet) diluted 1:8000 in PBS, 0.05% Tween, 0.1% BSA for 1 hour. […] Detection and quantification were as for brain Aβ40 assays. […]
On the technique in general: In an ELISA, binding on a coated surface is turned into a signal by an enzyme label.

The test system of a further experiment is brain Aβ40. Nature of the experiment: Acute rat study, brain Abeta40 assay (252-TSD ELISA). Type of experiment: in vivo. To be noted: female Sprague-Dawley rats, single dose 10 mg/kg, oral gavage. The method, then:
as §1, §2
Rat brain (half a hemisphere) was homogenized using a polytron at 4 mL/g in PBS, pH 7.8, 2% CHAPS, complete protease inhibitors (Roche). […] The bound 252-HRP antibody was detected using Pierce Supersignal Pico Chemiluminescent substrate for 10 minutes and quantified a Packard TopCount. […]

As usually defined, the IC50 is the concentration at which inhibition is half-maximal. High values mean weaker potency, low ones greater potency.

For `NC(=O)[C@@H](CCC(F)(F)F)N(Cc1ccc(-c2ncco2)cc1F)S(=O)(=O)c1ccc(Cl)s1` [Example 9, (R)-2-(5-chloro-N-(2-fluoro-4-(oxazol-2-yl)benzyl)thiophene-2-sulfonamido)-5,5,5-trifluoropentanamide], in experiment [1], inhibition was half-maximal at 0.61 nM (IC50).
Still for that read-out and setting: to `NC(=O)[C@@H](CC1CC1)N(Cc1ccc(Br)c(F)c1)S(=O)(=O)c1ccc(Cl)s1` [Example 3, (R)-2-(N-(4-bromo-3-fluorobenzyl)-5-chlorothiophene-2-sulfonamido)-3-cyclopropylpropanamide] belongs 0.76 nM.
As for `NC(=O)[C@@H](CCC(F)(F)F)N(Cc1ccc(-c2ncon2)cc1F)S(=O)(=O)c1ccc(Cl)s1` [Example 7, (R)-2-(5-chloro-N-(2-fluoro-4-(1,2,4-oxadiazol-3-yl)benzyl)thiophene-2-sulfonamido)-5,5,5-trifluoropentanamide], the “plasma Aβ40, level as % of vehicle control” value in the experiment with plasma Aβ40 is recorded as 47 % of vehicle control. The “brain Aβ40, level as % of vehicle control” value in the experiment on brain Aβ40 is 41 % of vehicle control. In experiment [1], the IC50 was 0.29 nM. Besides, in experiment [1] (cultured cells), the “Aβ40 versus Aβ42 inhibition in cultured cells” value was “similarly inhibited”.
In experiment [1], `NC(=O)[C@@H](CC1CC1)N(Cc1ccc(-c2ncon2)cc1)S(=O)(=O)c1ccc(Cl)s1` [Example 5, (R)-2-(N-(4-(1,2,4-oxadiazol-3-yl)benzyl)-5-chlorothiophene-2-sulfonamido)-3-cyclopropylpropanamide] came in with an IC50 of 0.51 nM.
`NC(=O)[C@@H](CC1CC1)N(Cc1ccc(Br)cc1F)S(=O)(=O)c1ccc(Cl)s1` [Example 2, (R)-2-(N-(4-bromo-2-fluorobenzyl)-5-chlorothiophene-2-sulfonamido)-3-cyclopropylpropanamide]: the IC50 in experiment [1] was found to be 0.52 nM.
`NC(=O)[C@@H](CCC(F)(F)F)N(Cc1ccc(Br)cc1)S(=O)(=O)c1ccc(Cl)s1` [Example 10, (R)-2-(N-(4-bromobenzyl)-5-chlorothiophene-2-sulfonamido)-5,5,5-trifluoropentanamnide] gave a half-maximal inhibitory concentration (IC50) in experiment [1] of 2.54 nM.
As for `NC(=O)[C@@H](CC1CC1)N(Cc1ccc(Br)cc1)S(=O)(=O)c1ccc(Cl)s1` [Example 1, (R)-2-(N-(4-bromobenzyl)-5-chlorothiophene-2-sulfonamido)-3-cyclopropylpropanamide], the IC50 in experiment [1] was 1.01 nM.
For `NC(=O)[C@@H](CCC(F)(F)F)N(Cc1ccc(Br)cc1F)S(=O)(=O)c1ccc(Cl)s1` [Example 11, (R)-2-(N-(4-bromo-2-fluorobenzyl)-5-chlorothiophene-2-sulfonamido)-5,5,5-trifluoropentanamide], the IC50 in experiment [1] was 1.06 nM.
For `NC(=O)[C@@H](CCC(F)(F)F)N(Cc1ccc(Br)c(F)c1)S(=O)(=O)c1ccc(Cl)s1` [Example 12, (R)-2-(N-(4-bromo-3-fluorobenzyl)-5-chlorothiophene-2-sulfonamido)-5,5,5-trifluoropentanamide], the IC50 in experiment [1] stood at 2.98 nM.
In experiment [1], `NC(=O)[C@@H](CC1CC1)N(Cc1cc(F)c(Br)cc1F)S(=O)(=O)c1ccc(Cl)s1` [Example 4, (R)-2-(N-(4-bromo-2,5-difluorobenzyl)-5-chlorothiophene-2-sulfonamido)-3-cyclopropylpropanamide] had an IC50 of 0.82 nM.
As to `NC(=O)[C@@H](CC1CC1)N(Cc1cc(F)c(Cl)cc1F)S(=O)(=O)c1ccc(Cl)s1` [Example 6, (R)-2-(5-chloro-N-(4-chloro-2,5-difluorobenzyl)thiaphene-2-sulfonamido)-3-cyclopropylpropanamide], the IC50 in experiment [1] came out at 1.49 nM.
